Here are results for one molecule from patent publication US20190112317A1, “ACTIVATORS OF AUTOPHAGIC FLUX AND PHOSPHOLIPASE D AND CLEARANCE OF PROTEIN AGGREGATES INCLUDING TAU AND TREATMENT OF PROTEINOPATHIES” (The Trustees of Columbia University in the City of New York, priority 2015, published 2019).

The nature of the data set: Photodiode array (PDA) detection of compound in mouse brain. Format: in vivo. The settings on record: PDA spectrum, FIG. 1. An excerpt: FIG. 1 is a graph showing a photodiode array (PDA) spectrum of WHYKD8 in mouse brain.
A photodiode array (PDA) was used to detect WHYKD8 in mouse brain (FIG. 1).

With `Oc1ccc(CCNc2ncnc3ccc(Cl)cc23)cc1` [WHYKD8], the “Detection in mouse brain” value is “readily detected”.
